What was measured:
[1] = tested on: radiation-induced pneumonitis and lung fibrosis; experiment: Thoracic lung irradiation: survival, lung histology, fibrosis; format: in vivo, mouse
Method: Our goal is to develop a drug to protect lung from ionizing radiation that is administered subcutaneously and has a favorable risk/benefit profile when administered 24 hours or later after radiation exposure. The drug, BCN 512, originally discovered in the UCLA CMCR, is a novel drug that emerged from high-throughput screening of small molecule libraries, and is now under investigation as a radiation injury mitigator. In our efforts to develop the drug as a lung MCM to treat the Delayed Effects of Acute Radiation Exposure (DEARE), we use the C57BL/6 and C3H mouse models. These models appear to recapitulate human lung fibrosis and pneumonitis, respectively, based upon the distinct sensitivity of the two strains (1, 2).
Radiation fibrosis is a progressive, dose-related, late complication of radiation exposure, with animals and humans surviving for some time with non-lethal damage. […] 512 works by altering the inflammatory infiltrate into the lung.
A: Lung histology of C57BL/6 mice receiving local thoracic radiation (radiation of the lung area) presenting a focal area of increased cellularity and edema on the upper left quadrant. Adjacent to this is increased cellularity (the lacey patterning). The lower right quadrant, emphysema is present with large clear areas indicating where alveoli have collapsed to present large open areas. B. Histopathology of C57BL/6 mouse lung under identical radiation treatment as A, but also treated with 5 mg/kg BCN512 once per day every 24 hours for 5 doses.
In both lobes, significant collapse of alveoli can be seen along with hyper cellularity (dark areas) and pronounced emphysema (large open areas) presenting fibrosis. C, D are separate lobes from the same animal treated identically as above but receiving BCN512 at 5 mg/kg daily for 5 days after 14.5Gy local thoracic radiation.

[2] = Pharmacokinetic profile after sc injection; format: in vivo; conditions: mouse, plasma; C57BL/6 male mice, 10 mg/kg sc, low % deoxycholate formulation
Method: FIG. 6A: Pharmacokinetic profile for C57BL/6 male mice receiving a 10 mg/kg sc injection of 512 in a low % deoxycholate formulation.
Because the side effects of Cremophor are undesirable for an MCM candidate, alternative formulations are being tested for further development of 512 for the lung DEARE indication.

lung organoids = experiment: Ex vivo 3D lung organoid culture after radiation; format: cell-based, mice; conditions: 6 Gy; 28 μM at 1-hour post-radiation exposure
Method: 512 induces lung organoid growth in ex vivo cultures: Ex vivo 3D organoid cultures are one of the best models for studying stem cell growth and proliferation because organoid growth depends primarily on the presence of stem cells. For these experiments, mice were euthanized by CO2 or ketamine-xylazine administration and the abdominal aorta was exposed and exsanguinated. The thoracic cavity was opened, and the lungs were exposed. Blood was flushed from the lung vasculature by perfusion with 10 mL of sterile cold PBS through the right ventricle. The trachea was cannulated with a 24-G cannula, and 1.2 mL of 10 U dispase (BD) was then injected into the lungs. The trachea and lungs were removed from the chest en-block and incubated for 20 minutes at room temperature (RT). The lung lobes were dissected from the trachea, heart, and rest of mediastinal structures and then finely minced and incubated for 10 more min with 2 mL of dispase. The suspension was passed through an 18-G needle 4-5 times to help open the lung compartments. If sticky DNA was detected, 10-30 μL of 4 mg/mL DNase I (Sigma) was added to the cell suspension and incubated at 37° C. for 5 min. The cells were filtered through a 100-μ cell strainer (BD Biosciences) to obtain single-cell suspensions (SCS). Red blood cells were lysed using RBC lysing buffer. […]

Structure (SMILES): O=[N+]([O-])c1ccc(S(=O)(=O)N2CCN(c3ccccc3)CC2)cc1 [BCN512, 1-[(4-nitrobenezene)sulfonyl]-4-phenyl piperazine]
- lung fibrosis histology ([1]; 14.5Gy local thoracic radiation, 5 mg/kg daily for 5 days, Day 120): Absent are the large lesions and pronounced fibrosis
- overall survival from pneumonitis and lung fibrosis ([1]; 18 Gy whole thoracic lung irradiation, 5 mg/Kg sc in Cremophor days 1-5, at 90 days and 160): improved overall survival
- lung histopathology ([1]; C57BL/6 mice, 14.5Gy local thoracic radiation, 5 mg/kg once per day for 5 doses): Lung tissue is normal with no evident emphysema or edema or hyper cellularity or immune infiltrate
- development of radiation fibrosis (late disease) ([1]; after 14 Gy, acute delivery (FIG. 18)): mitigates against the development of this late disease
- inflammatory macrophage content and phenotypic markers in the lung ([1]; after LTI, day 150): decrease in inflammatory macrophage content and phenotypic markers
- mature macrophage cell content in lung ([1]; day 160 after LTI): greatly decreased
- Cmax [2]: 132 ng/mL
- Tmax [2]: 2 h
- lung organoid growth (lung organoids): mitigated the radiation damage and induced lung organoid growth

From patent US11229635B2, “Method of treating fibrosis” (BCN Biosciences L.L.C., priority 2016, dated 2022)
